Test results from BindingDB's records for doi:10.1021/jm049388p (Merck Research Laboratories, 2004).

Biological target: Beta-secretase 1 (Homo sapiens, UniProt P56817)
Test: In Vitro BACE1 Activity Assay
Details: pH 4.5; 22 °C
Procedure: The assay was performed using a 96-well format on a HPLC equipped with four 96-well plate holders. Test compounds were preincubated with enzymes for 30min, followed by the addition of substrate. The solution was then incubated for an additional 30 min at room temperature. After the reaction was terminated, the solution was filtered, and the filtrate was subjected to HPLC analysis. The substrate and product were monitored by fluorescence detection (340nm excitation, 440 nm emission).

Chain of Beta-secretase 1 (P56817 whole entry): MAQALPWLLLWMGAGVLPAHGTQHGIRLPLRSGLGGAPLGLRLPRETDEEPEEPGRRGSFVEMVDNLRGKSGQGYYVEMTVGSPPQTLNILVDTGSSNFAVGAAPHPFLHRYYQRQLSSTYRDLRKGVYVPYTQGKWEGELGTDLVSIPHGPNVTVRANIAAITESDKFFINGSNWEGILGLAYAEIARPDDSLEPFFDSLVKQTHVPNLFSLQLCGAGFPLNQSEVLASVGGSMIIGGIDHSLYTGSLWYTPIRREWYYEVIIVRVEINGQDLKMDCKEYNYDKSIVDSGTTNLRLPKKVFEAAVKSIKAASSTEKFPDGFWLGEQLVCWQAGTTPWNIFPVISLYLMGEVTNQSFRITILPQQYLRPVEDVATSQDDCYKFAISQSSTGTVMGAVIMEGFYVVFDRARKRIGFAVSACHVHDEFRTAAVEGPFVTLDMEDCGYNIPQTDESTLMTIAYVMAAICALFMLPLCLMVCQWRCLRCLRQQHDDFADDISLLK

IC50: > 100 µM
Compound: C[C@H](NC(=O)c1cc(OCC(=O)NCCCCCN)cc(OS(=O)(=O)Cc2ccccc2)c1)c1ccccc1 [3-{[(5-aminopentyl)carbamoyl]methoxy}-5-{[(1S)-1-phenylethyl]carbamoyl}phenyl 1-phenylmethanesulfonate]
